# From PMC12881674, “Activation of TRPV3 channels in bladder cancer cells stimulates ATP release” (Molecular Pharmacology, 2025)
# System: KU-19-19 cells
# Experiment: MTT cell viability/proliferation assay
# Format: cell-based, human
# Conditions: 24 hours, concentrations up to 50 μM
# Description: To monitor a potential cytotoxicity of individual compounds, 3-(4,5-dimethylthiazol-2-yl)-2,5-diphenyltetrazolium bromide (MTT) assays were performed to assess cell viability and metabolic activity. Cells (5000 per/well) were seeded in PLL-coated 96-well plates and allowed to adhere overnight. After 24 hours, culture medium was exchanged for medium containing indicated drugs, and cells were cultured for another 24 hours. Following treatment with the compounds, 100 μL of medium containing 0.5 mg/mL MTT was added, and cells were incubated for additional 3 hours. The medium was removed, and 100 μL of DMSO was added to dissolve formazan crystals. Absorbance was measured at 560 nm, with a reference wavelength at 670 nm using a plate reader (Polarstar Omega; BMG Labtech). Cell viability was calculated relative to untreated control cells.
# Fig. 4 TRPV3 activation by AV3-1 was enhanced by cholesterol supplementation and causes ATP release in KU-19-19 bladder cancer cells. […] Current amplitudes were recorded using voltage ramps from −100 mV to +100 mV (500-millisecond duration) and expressed as current density (pA/pF) measured at +100 mV and −100 mV. (C) Quantification of current densities (pA/pF) at −100 mV (inward current) and +100 mV (outward current) at the time points (1, 2) as indicated in (A, B). […]
smiles,measurement,value
COC(=O)C12CN(Cc3ccccc3)CC1(C(=O)OC)CN(Cc1ccccc1)C2 (stereo not shown) [AV3-1],"toxicity (cell viability and proliferation, MTT)",only minor toxicity
